Common to all, as to format: cell-based
One test has as its system TSPYL5. The test can be described thus: Ubiquitination assay of TSPYL5. The procedure: H460 cells were transfected with pcDNA3.1/TSPYL5 (wild-type) and pcDNA3.1/TSPYL5-120A constructed in Example 1. 48 hours later, 10 μM MK2206 was treated to the cells for 1 hour and then the cells were recovered. A protease inhibitor was added to a cell lysis solution (2% SDS, 150 mM NaCl, 10 mM Tris-HCl, pH 8.0), followed by mixing. 100 μl of the solution was added to the cells. The cells were lysed by using a sonicator. Centrifugation was performed at 13000 rpm. The supernatant was obtained, which was diluted in a diluting solution (0.01% SDS, 1.1% Triton X-100, 1.2 mM EDTA, 16.7 mM Tris-HCl (pH8.1), 167 mM NaCl) at 1/10, followed by reaction at 4° C. for 30 minutes. TSPYL5 or ubiquitin specific antibody was added thereto, followed by reaction for overnight to induce protein binding. Protein A/G agarose beads were added thereto, followed by reaction for 4 hours. The protein was washed with washing buffer (10 mM Tris-HCl pH 8.0, 1 M NaCl, 1 mM EDTA, 1% NP40) twice. The protein was mixed with loading buffer and heated at 95° C. Samples were loaded, followed by reaction with TSPYL5 or ubiquitin specific antibody to confirm the protein expression.

Test [1] has as its system TSPYL5 protein. The test can be described thus: TSPYL5 expression after inhibition of AKT phosphorylation (PCR and Western blotting). To be noted: A549 cells. On the procedure:
In addition, 20 μM of MK2206 (Santa Cruze Biotechnology), the AKT (serine/threonine protein kinase) inhibitor, was treated thereto, followed by investigation of the inhibition of AKT phosphorylation and the inhibition of TSPYL5 expression.
Western blotting was performed as follows in order to investigate the protein expression. Lysis buffer (0.05 M Tris-Cl (pH7.4), 0.15 M NaCl, 0.25% deoxycholic acid, 1% NP-40, 1 mM EDTA, and protease inhibitor cocktail) was added to the target cells, followed by reaction at 4° C. for 30 minutes. The cell lysate was centrifuged at 4° C. to obtain the supernatant. The supernatant was quantified. 40 μg of each protein was loaded on SDS-gel, followed by electrophoresis. The proteins were transferred onto nitrocellulose membrane, followed by blocking with BSA containing buffer at room temperature for 30 minutes. Then, the membrane was reacted with the primary antibody PTEN (1:1000), TSPYL5 (Santa Cruz), ALDH1A1, ALDH1A3 (Abcam), CD44, and β-actin, or GAPDH (CST) for 4 hours. Then, the membrane was reacted with the secondary antibody (1:10000). The nitrocellulose membrane was washed 5 times with PBS, followed by sensitization on the film with the detection solution. […]
A general note: Immunoblotting shows a protein as a band on a membrane.

Test [2] relates to TSPYL5 protein. The test is described as follows: Location of TSPYL5 expression in cells after AKT/PI3K inhibitor (fluorescent microscope). To be noted: A549 cells, 10 μM MK2206 or 50 μM LY294002, 4 hours. On the procedure:
(§1) 1×10^5 A549 cells placed on the culture dish with the cover glass were treated with 10 μM of MK2206 (AKT inhibitor) and 50 μM of LY294002 (PI3K inhibitor) for 4 hours. The cells were fixed in 4% paraformaldehyde solution for 20 minutes. Then, the cover glass was washed with PBS three times and then treated with 0.5% TritonX-100 solution for 5 minutes. The cover glass was washed again with PBS three times. The cells were treated with 1% BSA for 2 hours, followed by reaction with the primary antibody TSPYL5 (Santa Cruz) diluted in PBS buffer at the ratio of 1:100 for 2 hours. Then, the cells were reacted with the secondary antibody Rabbit (Cell Signaling Technology) diluted at the ratio of 1:1000 for 1 hour. The cells were washed with PBS three times, and then the nucleus was stained with DAPI solution for 5 minutes. The location and the amount of TSPYL5 expression were investigated under fluorescent microscope.

Test [3] concerns A549 cells. The test can be described thus: Western blotting after AKT/PI3K inhibitor treatment. To be noted: 10 μM MK2206 or 50 μM LY294002, Western blotting. On the procedure: Western blotting was performed as follows in order to investigate the protein expression. Lysis buffer (0.05 M Tris-Cl (pH7.4), 0.15 M NaCl, 0.25% deoxycholic acid, 1% NP-40, 1 mM EDTA, and protease inhibitor cocktail) was added to the target cells, followed by reaction at 4° C. for 30 minutes. The cell lysate was centrifuged at 4° C. to obtain the supernatant. The supernatant was quantified. 40 μg of each protein was loaded on SDS-gel, followed by electrophoresis. The proteins were transferred onto nitrocellulose membrane, followed by blocking with BSA containing buffer at room temperature for 30 minutes. Then, the membrane was reacted with the primary antibody PTEN (1:1000), TSPYL5 (Santa Cruz), ALDH1A1, ALDH1A3 (Abcam), CD44, and β-actin, or GAPDH (CST) for 4 hours. Then, the membrane was reacted with the secondary antibody (1:10000). The nitrocellulose membrane was washed 5 times with PBS, followed by sensitization on the film with the detection solution.
as §1
Western blotting was also performed by the same manner as described in Experimental Example <1-1>. As a result, when AKT or PI3K inhibitor was treated to the cells, the expressions of TSPYL5, phosphorylated AKT, CD44, ALDH1A3, and ALDH1A1 were reduced.

For test [4], the system named is A549 cells. The test can be described thus: Cancer cell proliferation (colony-forming ability) after peptide treatment. To be noted: 10 μM of each peptide, 8 days, crystal violet staining, compared with DMSO control. The procedure:
Particularly, 1×10^3 A549 cells were distributed on a 35 mm plate, which were treated with 10 μM of each peptide. As for the control, DMSO was treated thereto, followed by culture in a 37° C. 5% CO2 incubator for 8 days. The cells were stained with 0.5% crystal violet for 10 minutes. The cells were washed with PBS several times and then cell proliferation was investigated.

For test [5], the system named is A549 cells. The test can be described thus: Transwell migration assay (cancer cell metastasis) after peptide treatment. To be noted: 10 μM peptide, 40 hours, compared with the control. On the procedure: (§2) The mixture was loaded in the transwell upper chamber. In the lower chamber, 500 μl of RPMI1640 supplemented with 7% FBS was loaded. Then, the two chambers were combined together. The cells were cultured in a 37° C. 5% CO2 incubator for 40 hours. The upper chamber membrane was wiped with cotton swabs, stained with crystal violet, and then observed under microscope.
(§3) For invasion assay, the transwell upper chamber was coated with 100 μl of matrigel (20 μg/well; BD Biosciences). Then, the rest of the process was the same as described in the migration assay above. The cells stained with crystal violet were eluted with 500 μl of 10% acetic acid. OD600 was measured to calculate the relative migration/invasion value of A549 cells.

Test [6] deals with A549 cells. The test can be described thus: Matrigel transwell invasion assay after peptide treatment. Particulars: 10 μM peptide, matrigel-coated transwell, compared with the control. On the procedure: as §2, §3
Test [7] has as its system A549 cells. The test is described as follows: Sphere formation after peptide treatment. To be noted: 10 μM of each peptide, 10 days, compared with the control. The procedure: To investigate the capacity of TSPYL5 peptide to inhibit the sphere formation, 2×10^4 A549 cells (non-small cell lung cancer cells) were suspended in DMEM (Invitrogen) containing stem cell-permissive medium. 20 ng/ml of EGF, 20 ng/ml of basic fibroblast growth factor (bFGF) and B27 serum-free supplement (Invitrogen) were mixed with DMEM-F12 (Invitrogen). The cells were distributed in the 96 well plate pre-coated with 0.8% agar (one cell/well), to which 10 μM of each peptide was treated, followed by culture. The cells were cultured in a 37° C. 5% CO2 incubator for 10 days. Then, the sphere formation was observed.

Test [8] deals with TSPYL5 protein. The test is described as follows: TSPYL5 nuclear expression after SUMOylation inhibition. To be noted: A549 cells, 3 uM, 2 hours. The procedure:
However, in the cells expressing pcDNA3.1/TSPYL5-120A, the SUMOylation was not observed. To confirm the SUMOylation inhibition, the SUMO1 inhibitor ginkgolic acid (Abcam) was treated to A549 cells at the concentration of 3 uM for 2 hours.

Setting [9] is: H460 cells transfected with pcDNA3.1/TSPYL5, 10 μM MK2206, 1 hour.

This note sets out measurements from patent publication US10117903B1, “Method for regulating cancer stem cell growth by inhibiting phosphorylation of 120th threonine residue of TSPYL5 protein, a composition containing the peptide sequence functioning to inhibit the phosphorylation and a use thereof” (Korea Atomic Energy Research Institute, priority 2016, dated 2018).

Where a SMILES comes first, the peptide text is derived from it. The star is where a group is joined. Cbz = O=C(OCc1ccccc1)*

In the case of `CC(C)C[C@@H](C=O)NC(=O)[C@H](CC(C)C)NC(=O)[C@H](CC(C)C)NC(=O)OCc1ccccc1` [MG132] (Cbz-Leu-Leu-Leu-aldehyde), in the test with TSPYL5 (H460 cells, when the 120th amino acid of TSPYL5 was phosphorylated), the “protein degradation of TSPYL5” value is “suppressed”.

As to `NC1(c2ccc(-c3nc4ccn5c(=O)[nH]nc5c4cc3-c3ccccc3)cc2)CCC1` [MK2206], in the test with TSPYL5 protein [1] (20 μM MK2206), the AKT phosphorylation result is listed as “suppressed”. For the same molecule, the “expression of TSPYL5 protein” value in the test on TSPYL5 protein [1] (20 μM MK2206, time course) is given as “inhibited in proportion to the suppression time of AKT phosphorylation”. The “TSPYL5 expression in the nucleus” value in the test on TSPYL5 protein [2] is reported as “not expressed in the nucleus”. In addition, in the test with A549 cells [3], the “expression of ALDH1A1” value was “reduced”, the “expression of ALDH1A3” value is reported as “reduced”, the “expression of CD44” value is “reduced” and the “expression of TSPYL5” value is on record as “reduced”. Also, the “expression of phosphorylated AKT” value in the test on A549 cells [3] is listed as “reduced”. For the same molecule, in the test on TSPYL5 (setting [9]), the “phosphorylation of TSPYL5” value is given as “inhibited” and the “ubiquitination of TSPYL5” value is listed as “increased”.

Consider “SERSAADTVFVGTAG (TS120T) [15 mer peptide containing the 120th residue threonine of TSPYL5]”, for which the cell proliferation result in the test on A549 cells [4] is listed as “significantly inhibited”; in the test on A549 cells [4] (listed as SEQ. ID. NO: 43), “reduced”. Besides, the “metastasis (migration)” value in the test on A549 cells [5] was “reduced”. In the test with A549 cells [6], the invasion result is “reduced”. Besides, the sphere formation entry with A549 cells [7] is “suppressed”; in the test with A549 cells [7] (listed as SEQ. ID. NO: 43), “inhibited”.

For the molecule “SERSAADDVFVGTAG (TS120D) [phosphorylation analogue mutant peptide in which the 120th T was substituted with D]”, the results for the cell proliferation entry in the test on A549 cells [4] and in the test on A549 cells [4] (listed as SEQ. ID. NO: 44) were “significantly inhibited” and “reduced”, respectively. For the same molecule, the “metastasis (migration)” value in the test with A549 cells [5] is recorded as “reduced”. Besides, the invasion result in the test on A549 cells [6] is recorded as “reduced”. The figures for the sphere formation entry with A549 cells [7] and in the test with A549 cells [7] (listed as SEQ. ID. NO: 44) were “suppressed” and “inhibited”, respectively.

On to “SERSSADAVFVGTAG (SERSAADAVFVGTAG; TS120A) [mutant peptide in which the 120th T was substituted with A]”, for which the cell proliferation result in the test on A549 cells [4] is on record as “not changed”. In addition, in the test on A549 cells [5], the “metastasis (migration)” value is reported as “did not make any big difference with the control”. Besides, the invasion entry with A549 cells [6] was “did not make any big difference with the control”. Moreover, the sphere formation result with A549 cells [7] is given as “not much changed”.

Take ginkgolic acid: in the test on TSPYL5 protein [8], the “TSPYL5 protein expression in the nucleus” value is reported as “not expressed in the nucleus”.
